Measurements from patent publication US20210393549A1, “New use of R-enantiomer of adrenergic beta 2 receptor agonists for treatment of inflammatory bowel disease and its extra intestinal manifestations” (priority 2018, published 2021).

Assays:
[1] = tested on: DSS induced acute colitis
Excerpt: In one embodiment, IBD was induced in mice by add DSS into drink water for 7 days. […] (Cooper, S. et al., Clinic pathologic study of dextran sulfate sodium experimental murine colitis, Laboratory Investigation, vol. 69, no. 2, p. 238-249, 1993)
The mice were scarified at day 10th for anatomy and histology evaluations. […] Each of the above histological features was scored individually and added together which is then collectively expressed as “histological score”, for quantitative evaluation (Cooper, S. et al., above).
Male C57BL mice (8-10 weeks, 18-20 g) were grouped into control (drinking water only), DSS and DSS plus treatment groups (n=5). Acute colitis was induced by feeding mice with 2% (w/v) dextran sulfate sodium (DSS) (molecular mass 36-50 kDa) added to the drinking water given ad libitum for 7 days. At the end of seventh day, DSS was removed and animals received only drinking water for 2 days. The animals were euthanized for anatomical and histological examination at the tenth day after DSS ingestion.
R-salbutamol (R-S) (1 mg/kg, S-salbutamol (S-S) (1 mg/kg), R-terbutaline (R-T) (1 mg/kg), S-terbutaline (S-T) (1 mg/kg), R-bambuterol (10 mg/kg), S-bambuterol (S-B) (10 mg/kg), R-clenbuterol (R-C) (1 mg/kg), RS-clenbuterol (RS-C) (2 mg/kg) were administered i.g. daily, starting from the 2nd day of DSS induction for consecutive 8 days. Dexamethasone (Dex), 1 mg/kg) was used as a reference drug.
Evaluation of disease symptoms and histological changes Disease activity index (DAI): Animals were monitored daily for weight, water/food consumption, morbidity, stool consistency and fecal blood. […] The colon length was recorded as an indicator of inflammation. The entire colon was cut open longitudinally and gently flushed with sterile phosphate-buffered saline (PBS) to remove any traces of feces for pathology preparation. Colon segments were fixed in 10% neutral buffered formalin. Tissues were embedded in paraffin, sectioned, mounted on slides. H&E-stained paraffin section images were acquired. Pathological evaluation was conducted in a blinded manner.
Histological Score: the scores were given as follows: epithelium, 0=normal morphology, 1=loss of goblet cells, 2=loss of goblet cells in large areas, 3=loss of crypts, and 4=loss of crypts in large areas; and inflammation cells infiltration, 0=no infiltrate, 1=infiltrate around the crypt basis, 2=infiltrate reaching the muscularis mucosae, 3=extensive infiltration reaching the muscularis mucosae and thickening of the mucosa with abundant edema, and 4=infiltration of the submucosa. Data were presented as mean±the standard deviation (SD).

[2] = tested on: DSS induced sub-acute colitis; assay: Prolonged (two weeks) treatment in DSS induced sub-acute colitis; type: in vivo, mice; conditions: evaluation at 23rd day, salbutamol 1 mg/kg, bambuterol 10 mg/kg
Excerpt: Same as example 2, except. 1), Two Weeks Treatment within a Three Weeks of Study
DSS was removed from drinking water at the end of 1st week. The treatments were started at 1st day for consecutive 14 days (2 weeks). Only drinking water given for the 3rd week. The evaluation and examination were made at 23rd day as did in example 1.

[3] = acute DSS colitis, compared with untreated DSS mice

In the case of `CC(C)(C)NC[C@H](O)c1ccc(O)c(CO)c1` [R-S, R-salbutamol], the “colon histology (H&E), in words” value ([1]; Example 1, compared with untreated DSS mice) is reported as “greatly improved”, the “body weight, in words” value ([1]; acute DSS colitis) is reported as “increased” and the “DAI, in words” value [1, 3] is reported as “significantly improved”. The “FOB, in words” value [1, 3] was “reduced”, the “histological score, in words” value [1, 3] was “significantly reduced” and the “length of colon-rector / shortening of large bowel, in words” value [1, 3] was “shortening of large bowel was reduced”. For the same compound, the “Hist score (histological score)” value ([1]; epithelium 0-4 plus infiltration 0-4, tenth day, 1 mg/kg (R-B, S-B 10 mg/kg; RS-C 2 mg/kg), mean ± SD) was 4 ± 0.5, the “FOB (fecal occult blood)” value ([1]; grade 0, 2, 4, i.g. daily 8 days, 1 mg/kg (R-B, S-B 10 mg/kg; RS-C 2 mg/kg), mean ± SD) was 0.5 ± 0.5 and the Weight ([1]; i.g. daily 8 days, 1 mg/kg (R-B, S-B 10 mg/kg; RS-C 2 mg/kg), mean ± SD) was 93 ± 2.8. The “DAI (disease active index)” value ([1]; score 0 to 12, i.g. daily 8 days from 2nd day of DSS, 1 mg/kg (R-B, S-B 10 mg/kg; RS-C 2 mg/kg), n=5) was 4, the “Col Length (colon length)” value ([1]; tenth day, i.g. daily 8 days, 1 mg/kg (R-B, S-B 10 mg/kg; RS-C 2 mg/kg), mean ± SD) was 7.7 ± 0.6 and the “DAI, in words” value [2] was “return toward normal”. For the same compound, the “histological score, in words” value [2] was “return toward normal”.
